What was measured:
Details in all cases: exposure time: 90 min
1309 [1] = donor line of iPSC-derived cardiomyocytes; assay: POD (EC05) for decrease in beat frequency (negative chronotrope) vs vehicle; higher = less potent (higher point of departure)
Procedure, shortened: (§1)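 Cardiomyocytes from human iPSCs of 16 donors spent 14 days in gelatin-coated 384-well plates before 2 h of fluorescent Ca2+ dye loading. They were then held for 90 min at 37 °C at final concentrations of 0.1, 1, 10 and 100 µM containing 0.5% DMSO, and Ca2+ flux was read on a FLIPR Tetra (8 frames/s, 100 s) before and after. Donor-level points of departure were taken from hierarchical Bayesian Hill fits to vehicle-normalised beat frequency, decay-to-rise ratio or peak frequency. For these, a 5% change was the threshold, or a 95% loss for peak frequency.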

1392 = donor line of iPSC-derived cardiomyocytes; assay: as above
Procedure, shortened: as §1

1516 [2] = donor line of iPSC-derived cardiomyocytes; assay: as above
Procedure, shortened: as §1

1535 = donor line of iPSC-derived cardiomyocytes; assay: as above
Procedure, shortened: as §1

1565 [3] = donor line of iPSC-derived cardiomyocytes; assay: as above
Procedure, shortened: as §1

20032 [4] = donor line of iPSC-derived cardiomyocytes; assay: as above
Procedure, shortened: as §1

20084 [5] = donor line of iPSC-derived cardiomyocytes; assay: as above
Procedure, shortened: as §1

30145 = donor line of iPSC-derived cardiomyocytes; assay: as above
Procedure, shortened: as §1

1083 = donor line of iPSC-derived cardiomyocytes; assay: POD (EC05) for increase in beat frequency (positive chronotrope) vs vehicle; higher = less potent (higher point of departure)
Experimental: (§2)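 Human iPSC-derived cardiomyocytes from 16 donors were exposed for 90 min at 37 °C to each PFAS at 0.1, 1, 10 and 100 µM in 0.5% DMSO, 384-well plates. Kinetic Ca2+ flux (FLIPR) and Hoechst nuclei counts were normalised to vehicle wells and fitted with a hierarchical Bayesian Hill model to give donor-specific PODs: EC05 for beat-rate increase or decrease and for decay-to-rise ratio increase (QT proxy), EC95 for peak-frequency loss (asystole), EC10 for total cell number loss. 0.03 µM is the lower bound.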

1118 = donor line of iPSC-derived cardiomyocytes; assay: as above
Experimental: as §2

11235 = donor line of iPSC-derived cardiomyocytes; assay: as above
Experimental: as §2

1309 [6] = assay: as above
Experimental: as §2

1434 = donor line of iPSC-derived cardiomyocytes; assay: as above
Experimental: as §2

1516 [7] = assay: as above
Experimental: as §2

1518 = donor line of iPSC-derived cardiomyocytes; assay: as above
Experimental: as §2

1531 = donor line of iPSC-derived cardiomyocytes; assay: as above
Experimental: as §2

1565 [8] = assay: as above
Experimental: as §2

20032 [9] = assay: as above
Experimental: as §2

20084 [10] = assay: as above
Experimental: as §2

30171 = donor line of iPSC-derived cardiomyocytes; assay: as above
Experimental: as §2

| SMILES | POD vs vehicle 1309 [1] [µM] | POD vs vehicle 1392 [µM] | POD vs vehicle 1516 [2] [µM] | POD vs vehicle 1535 [µM] | POD vs vehicle 1565 [3] [µM] | POD vs vehicle 20032 [4] [µM] | POD vs vehicle 20084 [5] [µM] | POD vs vehicle 30145 [µM] | POD vs vehicle 1083 [µM] | POD vs vehicle 1118 [µM] | POD vs vehicle 11235 [µM] | POD vs vehicle 1309 [6] [µM] | POD vs vehicle 1434 [µM] | POD vs vehicle 1516 [7] [µM] | POD vs vehicle 1518 [µM] | POD vs vehicle 1531 [µM] | POD vs vehicle 1565 [8] [µM] | POD vs vehicle 20032 [9] [µM] | POD vs vehicle 20084 [10] [µM] | POD vs vehicle 30171 [µM] |
| --- | --- | --- | --- | --- | --- | --- | --- | --- | --- | --- | --- | --- | --- | --- | --- | --- | --- | --- | --- | --- |
| O=C(O)CCC(F)(F)C(F)(F)C(F)(F)C(F)(F)C(F)(F)C(F)(F)C(F)(F)F [3-Perfluoroheptylpropanoic_acid] | > 100 | > 100 | 56.9 | > 100 | > 100 | > 100 | > 100 | > 100 | > 100 | > 100 | > 100 | > 100 | > 100 | > 100 | > 100 | > 100 | > 100 | > 100 | > 100 | > 100 |
| O=C(O)CCC(F)(F)C(F)(F)C(F)(F)F [3:3 Fluorotelomer carboxylic acid] | > 100 | > 100 | > 100 | > 100 | > 100 | > 100 | > 100 | > 100 | > 100 | > 100 | > 100 | > 100 | > 100 | > 100 | > 100 | > 100 | > 100 | > 100 | > 100 | > 100 |
| O=C(CC(=O)C(F)(F)C(F)(F)F)C(F)(F)F [3H,3H-Perfluoro-2,4-hexanedione] | > 100 | > 100 | 45.3 | > 100 | > 100 | > 100 | > 100 | > 100 | > 100 | > 100 | > 100 | > 100 | > 100 | > 100 | > 100 | > 100 | > 100 | > 100 | > 100 | > 100 |
| OCCC(F)(F)C(F)(F)C(F)(F)C(F)(F)F [4:2 Fluorotelomer alcohol] | > 100 | > 100 | > 100 | > 100 | > 100 | > 100 | > 100 | > 100 | > 100 | > 100 | > 100 | > 100 | > 100 | > 100 | > 100 | > 100 | > 100 | > 100 | > 100 | > 100 |
| O=S(=O)(O)CCC(F)(F)C(F)(F)C(F)(F)C(F)(F)F [4:2 Fluorotelomer sulfonic acid] | > 100 | > 100 | > 100 | > 100 | > 100 | > 100 | > 100 | > 100 | > 100 | > 100 | > 100 | > 100 | > 100 | > 100 | > 100 | > 100 | > 100 | > 100 | > 100 | > 100 |
